Laboratory results published in US20260028382A1, “IMMUNOGENIC PEPTIDES AND THEIR USES IN CANCER DIAGNOSIS AND THERAPY” (The Chinese University of Hong Kong, priority 2024, published 2026).

System: CD8+ T cells
Experiment: IFN-γ ELISpot assay of peptide immunogenicity (peptide-pulsed DC:CD8+ T cell co-culture)
Assay type: cell-based, human
Excerpt: We obtained peripheral mononuclear cells (PBMCs) from healthy donor buffy coat samples via density gradient centrifugation. We utilized QIAamp DNA Blood Kits (Qiagen) to isolate DNA for HLA typing with LinkSeq™ HLA-ABCDRDQDP+ 384 Kit (One Lambda) on a QuantStudio™ 7 Flex Real-Time PCR System. Human T and dendritic cells (DCs) were enriched from PBMCs using a CD8 cell isolation kit and Pan-DC enrichment kit (Miltenyi Biotec), respectively, and subsequently cultured in RPMI-1640 medium (Life Technologies) supplemented with 10% FBS and 100 U/mL of Penicillin-Streptomycin.
Dendritic cells (DCs) were pulsed with a 10 μg mL^−1 peptide concentration at a cell density of 10^5 cells/mL for 4 hours at 37° C. Following this, the DCs were mixed with autologous CD8+ T cells at a DC:T cell ratio of 1:10. The cell mixture was then aliquoted into an ELISpot plate at 100 μL per well and incubated for 24 hours. The secreted IFN-γ signal was detected using the ELISpot Plus Human IFN-γ (ALP) kit (Mabtech). […]
We utilized ELISpot assay, which quantifies cytokine IFN-γ releasing by CD8^+ T lymphocytes isolated from PBMCs of healthy subjects, to verify the immunogenic potential of candidate peptides. […] We co-cultured pan-DCs loaded with the candidate peptides with autologous CD8′ T cells for 24 hours and assessed the secretion of IFN-γ as an indicator of T-cell activation and immunogenicity.

Sequence	T cell response (IFN-γ secretion) (peptide concentration of 1 ug mL^−1, DC:CD8+ T cell co-culture, 24 hours, healthy donors)	immunogenicity demonstrated in the ELISpot analysis
MCDEDETTA [Actin1-9, peptide derived from human Actin within the amino acid region 1-9, negative control]	negligible response	–
STIHLASQFTK (Description of sequence: non-canonical peptide, associated gene: CRYBG1, classification: CDS (frame-shift), short form name: p9; listed as Homo sapiens)	–	strong immunogenicity
